Measurements as given in ChEMBL document CHEMBL4373723 (J Med Chem, 2019).
Bridge positions count the residues as written; N and C are the ends. Square brackets hold non-standard residues; d marks the D form. Peptide text beside a SMILES is read from it. I, II: the chains in the order shown. hPhe = N[C@@H](CCc1ccccc1)C(=O)O; tBuAla = CC(C)(C)C[C@H](N)C(=O)O

Assays:
Frizzled-7 [1] = molecular target: T1, Frizzled-7 (Homo sapiens, UniProt O75084); test: Inhibition of Frizzled-7 in HEK293 cells expressing Wnt assessed as reduction in Wnt signaling by firefly luciferase reporter gene assay; assay type: cell-based
Frizzled-7 [2] = molecular target: T1, Frizzled-7; test: biochemical; assay type: cell-based, CHO; settings: read-out: Kd
Frizzled-7 [3] = molecular target: T1, Frizzled-7; settings: CHO
Description: Binding affinity to recombinant human Frizzled-7 (Gln33 to Leu185 residues)/human IgG1 chimeric protein expressed in CHO cells assessed as association rate constant by SPR assay

Frizzled-7 [4] = molecular target: T1, Frizzled-7; assay type: cell-based; settings: cho
Frizzled-9 = molecular target: T2, Frizzled-9 (Homo sapiens, UniProt O00144); test: Binding affinity to Frizzled-9 CRD (unknown origin)
T2 sequence (O00144 whole entry): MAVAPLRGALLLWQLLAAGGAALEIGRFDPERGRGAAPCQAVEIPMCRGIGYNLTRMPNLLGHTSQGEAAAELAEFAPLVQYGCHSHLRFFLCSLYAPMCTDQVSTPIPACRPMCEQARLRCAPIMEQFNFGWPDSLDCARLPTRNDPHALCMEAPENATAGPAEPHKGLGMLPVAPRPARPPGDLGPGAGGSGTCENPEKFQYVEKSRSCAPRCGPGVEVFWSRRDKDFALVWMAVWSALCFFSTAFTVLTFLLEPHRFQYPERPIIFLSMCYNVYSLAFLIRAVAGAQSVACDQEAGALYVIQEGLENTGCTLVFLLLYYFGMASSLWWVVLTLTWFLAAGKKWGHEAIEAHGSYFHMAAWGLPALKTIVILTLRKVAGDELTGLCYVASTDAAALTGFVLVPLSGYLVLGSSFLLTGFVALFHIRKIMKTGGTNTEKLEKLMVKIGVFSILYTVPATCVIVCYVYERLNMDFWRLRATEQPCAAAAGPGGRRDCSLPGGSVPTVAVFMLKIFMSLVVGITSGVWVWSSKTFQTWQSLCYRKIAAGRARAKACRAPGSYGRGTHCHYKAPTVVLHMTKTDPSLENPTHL

[5] = Binding affinity to recombinant human/mouse Frizzled-2 (Gln29 to Leu168 residues)/human IgG1 chimeric protein expressed in mouse NS0 cells by SPR assay
Frizzled-4 = molecular target: T3, Frizzled-4 (Homo sapiens, UniProt Q9ULV1); test: Binding affinity to recombinant human Frizzled-4 (Phe37 to Glu180 residues)/human IgG1 chimeric protein expressed in mouse NS0 cells by SPR assay
T3 sequence (Q9ULV1 whole entry): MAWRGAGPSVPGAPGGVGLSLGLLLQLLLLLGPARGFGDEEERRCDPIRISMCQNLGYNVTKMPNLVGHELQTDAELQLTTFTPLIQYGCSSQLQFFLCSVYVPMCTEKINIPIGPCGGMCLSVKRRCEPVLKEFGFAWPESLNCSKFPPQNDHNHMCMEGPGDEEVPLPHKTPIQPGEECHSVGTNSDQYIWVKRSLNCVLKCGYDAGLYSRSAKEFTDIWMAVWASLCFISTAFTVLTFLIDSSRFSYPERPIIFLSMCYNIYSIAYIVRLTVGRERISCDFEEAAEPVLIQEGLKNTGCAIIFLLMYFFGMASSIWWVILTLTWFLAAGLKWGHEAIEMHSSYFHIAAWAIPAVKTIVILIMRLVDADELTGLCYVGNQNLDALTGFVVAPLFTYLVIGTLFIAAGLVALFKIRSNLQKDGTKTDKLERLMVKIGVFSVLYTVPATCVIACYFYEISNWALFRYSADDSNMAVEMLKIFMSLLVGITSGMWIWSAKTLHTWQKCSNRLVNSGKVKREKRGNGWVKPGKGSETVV

Frizzled-5 = Frizzled-5 (Homo sapiens, UniProt Q13467); test: Binding affinity to recombinant human Frizzled-5 (Ala27 to Pro167 residues)/human IgG1 chimeric protein expressed in mouse NS0 cells by SPR assay
Frizzled-7 [6] = molecular target: T1, Frizzled-7; test: Binding affinity to recombinant human Frizzled-7 (Gln33 to Leu185 residues)/human IgG1 chimeric protein expressed in CHO cells assessed as reduction in interaction of TcdB with FZD7 incubated for 1 hr by competition ELISA; assay type: cell-based
Frizzled-1 = Frizzled-1 (Homo sapiens, UniProt Q9UP38); test: Binding affinity to recombinant human Frizzled-1 (Gln73 to His253 residues)/human IgG1 chimeric protein expressed in mouse NS0 cells by SPR assay
Frizzled-8 = Frizzled-8 (Homo sapiens, UniProt Q9H461); test: Binding affinity to recombinant human Frizzled-8 (Ala25 to Pro172 residues)/human IgG1 chimeric protein expressed in CHO cells […] by SPR assay
Frizzled-10 = molecular target: T4, Frizzled-10 (Homo sapiens, UniProt Q9ULW2); test: Binding affinity to Frizzled-10 CRD (unknown origin)
T4 sequence (Q9ULW2 whole entry): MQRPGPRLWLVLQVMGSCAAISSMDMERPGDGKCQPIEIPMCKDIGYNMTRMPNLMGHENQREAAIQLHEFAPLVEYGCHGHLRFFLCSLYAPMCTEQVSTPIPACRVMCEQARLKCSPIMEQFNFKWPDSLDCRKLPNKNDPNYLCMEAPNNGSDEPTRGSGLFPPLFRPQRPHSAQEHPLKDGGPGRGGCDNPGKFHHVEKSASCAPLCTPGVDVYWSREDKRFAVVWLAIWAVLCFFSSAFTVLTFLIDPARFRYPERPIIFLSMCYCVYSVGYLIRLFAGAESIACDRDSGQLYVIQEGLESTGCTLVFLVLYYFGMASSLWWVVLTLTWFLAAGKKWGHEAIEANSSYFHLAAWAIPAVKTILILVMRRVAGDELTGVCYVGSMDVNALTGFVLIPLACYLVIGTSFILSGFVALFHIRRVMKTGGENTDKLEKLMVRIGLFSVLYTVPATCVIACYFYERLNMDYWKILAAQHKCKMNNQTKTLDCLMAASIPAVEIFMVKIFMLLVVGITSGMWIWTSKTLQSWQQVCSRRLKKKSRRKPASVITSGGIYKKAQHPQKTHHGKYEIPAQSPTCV

[7] = Binding affinity to recombinant human/mouse Frizzled-2 (Gln29 to Leu168 residues)/human IgG1 chimeric protein expressed in mouse NS0 cells assessed as reduction in interaction of TcdB with FZD7 incubated for 1 hr by competition ELISA; assay type: cell-based

Chain of Frizzled-5 (Q13467 whole entry): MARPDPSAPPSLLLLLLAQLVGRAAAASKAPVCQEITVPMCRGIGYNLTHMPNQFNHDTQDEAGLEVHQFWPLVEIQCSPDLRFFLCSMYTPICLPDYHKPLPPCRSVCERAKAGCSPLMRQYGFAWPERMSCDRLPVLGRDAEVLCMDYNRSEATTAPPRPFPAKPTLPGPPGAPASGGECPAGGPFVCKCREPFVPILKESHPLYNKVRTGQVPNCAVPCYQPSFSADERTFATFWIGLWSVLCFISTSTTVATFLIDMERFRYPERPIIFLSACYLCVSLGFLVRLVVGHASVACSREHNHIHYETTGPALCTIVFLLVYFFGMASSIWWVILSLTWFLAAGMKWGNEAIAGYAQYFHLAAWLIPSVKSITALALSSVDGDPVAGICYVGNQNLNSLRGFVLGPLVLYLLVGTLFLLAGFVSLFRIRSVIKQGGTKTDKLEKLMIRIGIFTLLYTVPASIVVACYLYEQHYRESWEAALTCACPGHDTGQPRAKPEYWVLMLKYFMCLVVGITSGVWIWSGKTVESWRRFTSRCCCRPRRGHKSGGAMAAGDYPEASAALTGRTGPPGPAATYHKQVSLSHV
Chain of Frizzled-1 (Q9UP38 whole entry): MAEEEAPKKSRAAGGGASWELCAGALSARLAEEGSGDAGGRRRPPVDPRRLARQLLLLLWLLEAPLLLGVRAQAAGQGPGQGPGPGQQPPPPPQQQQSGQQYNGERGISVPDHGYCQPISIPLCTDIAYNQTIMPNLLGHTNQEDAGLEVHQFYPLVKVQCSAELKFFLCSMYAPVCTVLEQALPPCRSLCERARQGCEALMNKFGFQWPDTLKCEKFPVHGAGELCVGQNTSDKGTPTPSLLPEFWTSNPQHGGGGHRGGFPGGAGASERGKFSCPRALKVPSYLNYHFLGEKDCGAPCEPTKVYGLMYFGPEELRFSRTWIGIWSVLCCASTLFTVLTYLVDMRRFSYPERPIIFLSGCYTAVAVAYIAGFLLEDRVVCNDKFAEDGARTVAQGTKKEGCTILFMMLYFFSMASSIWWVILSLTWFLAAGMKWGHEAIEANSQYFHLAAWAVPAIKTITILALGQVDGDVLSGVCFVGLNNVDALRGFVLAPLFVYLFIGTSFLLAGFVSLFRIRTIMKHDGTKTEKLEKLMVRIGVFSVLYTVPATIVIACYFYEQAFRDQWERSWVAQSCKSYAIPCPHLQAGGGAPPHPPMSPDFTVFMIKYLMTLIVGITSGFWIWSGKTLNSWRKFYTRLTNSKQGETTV
Chain of Frizzled-8 (Q9H461 whole entry): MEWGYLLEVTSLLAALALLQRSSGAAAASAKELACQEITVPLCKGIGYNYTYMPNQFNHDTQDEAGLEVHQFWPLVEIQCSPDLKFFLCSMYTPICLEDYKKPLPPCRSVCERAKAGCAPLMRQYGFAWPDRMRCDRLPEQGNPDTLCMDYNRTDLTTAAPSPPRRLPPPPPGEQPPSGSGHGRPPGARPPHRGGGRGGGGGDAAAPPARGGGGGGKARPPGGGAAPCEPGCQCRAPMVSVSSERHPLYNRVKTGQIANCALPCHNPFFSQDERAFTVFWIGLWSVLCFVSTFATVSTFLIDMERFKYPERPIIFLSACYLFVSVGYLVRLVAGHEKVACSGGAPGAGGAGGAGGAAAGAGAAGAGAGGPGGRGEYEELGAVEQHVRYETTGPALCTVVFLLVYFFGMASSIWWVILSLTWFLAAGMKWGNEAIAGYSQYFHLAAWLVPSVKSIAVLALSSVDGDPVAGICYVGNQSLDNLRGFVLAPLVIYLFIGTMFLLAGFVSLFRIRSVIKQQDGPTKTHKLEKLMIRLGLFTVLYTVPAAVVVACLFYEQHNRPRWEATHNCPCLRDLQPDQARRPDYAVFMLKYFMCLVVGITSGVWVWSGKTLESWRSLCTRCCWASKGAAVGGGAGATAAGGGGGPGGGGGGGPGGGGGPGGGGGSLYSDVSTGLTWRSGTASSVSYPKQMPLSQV

| Compound | IC50 (Frizzled-7 [1]) | Kd (Frizzled-7 [2]) | Ka (Frizzled-7 [3]) | Kd (Frizzled-7 [4]) | Kd (Frizzled-9) | Kd [5] | Kd (Frizzled-4) | Kd (Frizzled-5) | inhibition (Frizzled-7 [6]) | Kd (Frizzled-1) | Kd (Frizzled-8) | Kd (Frizzled-10) | inhibition [7] |
| --- | --- | --- | --- | --- | --- | --- | --- | --- | --- | --- | --- | --- | --- |
| CC[C@H](C)[C@H](NC(=O)[C@H](Cc1cnc[nH]1)NC(=O)[C@H](CSSC[C@H](NC(=O)[C@H](Cc1c[nH]c2ccccc12)NC(=O)[C@H](CC(C)C)NC(=O)[C@H](CCCCN)NC(=O)[C@H](CC(C)C)NC(=O)[C@H](CC(=O)O)NC(=O)[C@H](CC(=O)O)NC(=O)[C@@H](NC(C)=O)[C@H](C)O)C(=O)N[C@@H](Cc1cnc[nH]1)C(=O)N[C@H](C(=O)N[C@@H](CCSC)C(=O)N[C@@H](Cc1ccc(O)cc1)C(N)=O)[C@@H](C)CC)NC(=O)[C@H](Cc1c[nH]c2ccccc12)NC(=O)[C@H](CC(C)C)NC(=O)[C@H](CCCCN)NC(=O)[C@H](CC(C)C)NC(=O)[C@H](CC(=O)O)NC(=O)[C@H](CC(=O)O)NC(=O)[C@@H](NC(C)=O)[C@H](C)O)C(=O)N[C@@H](CCSC)C(=O)N[C@@H](Cc1ccc(O)cc1)C(N)=O | 4.8 nM | 0.045 nM | 103 ×10⁵ /M/s | 0.46 ×10⁻³ /s | – | – | – | – | – | – | – | – | – |
| CSCC[C@H](NC(=O)[C@@H](NC(=O)[C@H](Cc1cnc[nH]1)NC(=O)[C@H](CSSC[C@H](NC(=O)[C@H](Cc1c[nH]c2ccccc12)NC(=O)[C@H](Cc1ccccc1)NC(=O)[C@H](CCC(=O)O)NC(=O)[C@H](CC(C)C)NC(=O)[C@H](CC(=O)O)NC(=O)[C@H](CC(=O)O)NC(=O)[C@H](CO)NC(=O)[C@@H]1CCCN1C(=O)[C@H](CC(C)C)NC(C)=O)C(=O)N[C@@H](Cc1cnc[nH]1)C(=O)N[C@H](C(=O)N[C@@H](CCSC)C(=O)N[C@@H](Cc1ccc(O)cc1)C(N)=O)C(C)C)NC(=O)[C@H](Cc1c[nH]c2ccccc12)NC(=O)[C@H](Cc1ccccc1)NC(=O)[C@H](CCC(=O)O)NC(=O)[C@H](CC(C)C)NC(=O)[C@H](CC(=O)O)NC(=O)[C@H](CC(=O)O)NC(=O)[C@H](CO)NC(=O)[C@@H]1CCCN1C(=O)[C@H](CC(C)C)NC(C)=O)C(C)C)C(=O)N[C@@H](Cc1ccc(O)cc1)C(N)=O (I: Ac-LPSDDLEFWCHVMY-NH2 / II: Ac-LPSDDLEFWCHVMY-NH2; disulfide I:10-II:10) | 32 nM | 1.18 nM | 47.5 ×10⁵ /M/s | 5.6 ×10⁻³ /s | Not Active | 1.46 nM | Not Active | Not Active | Dose-dependent effect | 2.42 nM | Not Active | Not Active | Dose-dependent effect |
| CC[C@H](C)[C@H](NC(=O)[C@H](Cc1cnc[nH]1)NC(=O)[C@H](CSSC[C@H](NC(=O)[C@H](Cc1c[nH]c2ccccc12)NC(=O)[C@H](CC(C)C)NC(=O)[C@H](CCC(=O)O)NC(=O)[C@H](CC(C)C)NC(=O)[C@H](CC(=O)O)NC(=O)[C@H](CC(=O)O)NC(=O)[C@H](CO)NC(C)=O)C(=O)N[C@@H](Cc1cnc[nH]1)C(=O)N[C@H](C(=O)N[C@@H](CCSC)C(=O)N[C@@H](Cc1ccc(O)cc1)C(N)=O)[C@@H](C)CC)NC(=O)[C@H](Cc1c[nH]c2ccccc12)NC(=O)[C@H](CC(C)C)NC(=O)[C@H](CCC(=O)O)NC(=O)[C@H](CC(C)C)NC(=O)[C@H](CC(=O)O)NC(=O)[C@H](CC(=O)O)NC(=O)[C@H](CO)NC(C)=O)C(=O)N[C@@H](CCSC)C(=O)N[C@@H](Cc1ccc(O)cc1)C(N)=O (I: Ac-SDDLELWCHIMY-NH2 / II: Ac-SDDLELWCHIMY-NH2; disulfide I:8-II:8) | 7.3 nM | 0.044 nM | 128 ×10⁵ /M/s | 0.57 ×10⁻³ /s | – | – | – | – | – | – | – | – | – |
| CSCC[C@H](NC(=O)[C@@H](NC(=O)[C@H](Cc1cnc[nH]1)NC(=O)[C@H](CSSC[C@H](NC(=O)[C@H](Cc1c[nH]c2ccccc12)NC(=O)[C@H](Cc1ccccc1)NC(=O)[C@H](CCC(=O)O)NC(=O)[C@H](CCc1ccccc1)NC(=O)[C@H](CC(=O)O)NC(=O)[C@H](CC(=O)O)NC(=O)[C@H](CO)NC(C)=O)C(=O)N[C@@H](Cc1cnc[nH]1)C(=O)N[C@H](C(=O)N[C@@H](CCSC)C(=O)N[C@@H](Cc1ccc(O)cc1)C(N)=O)C(C)C)NC(=O)[C@H](Cc1c[nH]c2ccccc12)NC(=O)[C@H](Cc1ccccc1)NC(=O)[C@H](CCC(=O)O)NC(=O)[C@H](CCc1ccccc1)NC(=O)[C@H](CC(=O)O)NC(=O)[C@H](CC(=O)O)NC(=O)[C@H](CO)NC(C)=O)C(C)C)C(=O)N[C@@H](Cc1ccc(O)cc1)C(N)=O (I: Ac-SDD[hPhe]EFWCHVMY-NH2 / II: Ac-SDD[hPhe]EFWCHVMY-NH2; disulfide I:8-II:8) | – | 1.4 nM | 69.6 ×10⁵ /M/s | 9.1 ×10⁻³ /s | – | – | – | – | – | – | – | – | – |
| CSCC[C@H](NC(=O)[C@@H](NC(=O)[C@H](Cc1cnc[nH]1)NC(=O)[C@H](CSSC[C@H](NC(=O)[C@H](Cc1c[nH]c2ccccc12)NC(=O)[C@H](Cc1ccccc1)NC(=O)[C@H](CCC(=O)O)NC(=O)[C@H](CC(C)(C)C)NC(=O)[C@H](CC(=O)O)NC(=O)[C@H](CC(=O)O)NC(=O)[C@H](CO)NC(C)=O)C(=O)N[C@@H](Cc1cnc[nH]1)C(=O)N[C@H](C(=O)N[C@@H](CCSC)C(=O)N[C@@H](Cc1ccc(O)cc1)C(N)=O)C(C)C)NC(=O)[C@H](Cc1c[nH]c2ccccc12)NC(=O)[C@H](Cc1ccccc1)NC(=O)[C@H](CCC(=O)O)NC(=O)[C@H](CC(C)(C)C)NC(=O)[C@H](CC(=O)O)NC(=O)[C@H](CC(=O)O)NC(=O)[C@H](CO)NC(C)=O)C(C)C)C(=O)N[C@@H](Cc1ccc(O)cc1)C(N)=O (I: Ac-SDD[tBuAla]EFWCHVMY-NH2 / II: Ac-SDD[tBuAla]EFWCHVMY-NH2; disulfide I:8-II:8) | – | 0.22 nM | 44 ×10⁵ /M/s | 0.95 ×10⁻³ /s | – | – | – | – | – | – | – | – | – |
| CSCC[C@H](NC(=O)[C@@H](NC(=O)[C@H](Cc1cnc[nH]1)NC(=O)[C@H](CSSC[C@H](NC(=O)[C@H](Cc1c[nH]c2ccccc12)NC(=O)[C@H](Cc1ccccc1)NC(=O)[C@H](CCC(=O)O)NC(=O)[C@H](CC(C)C)NC(=O)[C@H](CC(=O)O)NC(=O)[C@H](CC(=O)O)NC(=O)[C@@H](NC(C)=O)[C@@H](C)O)C(=O)N[C@@H](Cc1cnc[nH]1)C(=O)N[C@H](C(=O)N[C@@H](CCSC)C(=O)N[C@@H](Cc1ccc(O)cc1)C(N)=O)C(C)C)NC(=O)[C@H](Cc1c[nH]c2ccccc12)NC(=O)[C@H](Cc1ccccc1)NC(=O)[C@H](CCC(=O)O)NC(=O)[C@H](CC(C)C)NC(=O)[C@H](CC(=O)O)NC(=O)[C@H](CC(=O)O)NC(=O)[C@@H](NC(C)=O)[C@@H](C)O)C(C)C)C(=O)N[C@@H](Cc1ccc(O)cc1)C(N)=O (I: Ac-TDDLEFWCHVMY-NH2 / II: Ac-TDDLEFWCHVMY-NH2; disulfide I:8-II:8) | – | 0.14 nM | 51.5 ×10⁵ /M/s | 0.72 ×10⁻³ /s | – | – | – | – | – | – | – | – | – |
